What was measured:
[1] = test system: dextran sulfate sodium (DSS)-induced colitis; experiment: DSS-induced colitis in mice, 3.1% DSS: body weight change and DAI (Example 11); assay type: in vivo, C57BL/6 mice; conditions: 50 mg/kg, QD
Source text: The experimental mice were housed in an SPF grade animal room for three days for adaptation, and randomly divided into 7 groups (6 model groups and 1 control group) of 10 mice in each group. Dosing of mice started on Day 0 and ended on Day 7.
The mouse enteritis model of this Example was established by DSS induction: mice in the model group were provided with a 3.1% DSS (dextran sulfate sodium, molecular weight 36,000-50,000) aqueous solution from Day 0 to Day 7, and the DSS aqueous solution was replaced with freshly prepared solution every day to prevent degradation. Mice in the normal control group were provided with normal water. The experimental period was 9 days, and the mice were euthanized and samples were collected at the experimental endpoint.
The DAI score was assessed daily. The DAI score consisted of 3 parts: body weight change, stool characteristics, and hematochezia (or occult blood) score, and the specific scoring criteria were as shown in Table 49. The DAI scoring of all mice was done by the same staff throughout the experiment.
Mice were euthanized at the experimental endpoint. The colon of mice was dissected, and photograph was taken, the length was measured, and the contents were removed before weighing.
The data were expressed as mean±standard error (X±s). Body weight change and disease activity score were statistically analyzed by two-way ANOVA and comparison between groups were performed by Dunnett's test. Other data were statistically analyzed by one-way ANOVA and comparison between groups were performed by Dunnett's test. All analyses were performed using GraphPad Prism software. * P<0.05, ** P<0.01, *** P<0.005, **** P<0.0001 vs. solvent group.

[2] = test system: NMO-IgG-induced neuromyelitis optica; experiment: NMO-IgG-induced neuromyelitis optica (NMO) in mice: AQP4, GFAP, IBA1, CD45 (Example 7); assay type: in vivo, C57 mice; conditions: 50 and 100 mg/kg PO QD × 10 days
Protocol: 1) C57 female mice (6 to 8 weeks old) were anesthetized with intraperitoneal injection of 5% chloral hydrate (70 μL/10 g).
2) Fur of the top of head was removed to expose the scalp. The mouse head was fixed on the brain stereotaxic apparatus, keeping the top of the skull horizontal. The scalp was disinfected with iodophor.
3) The scalp was cut lengthwise for about 0.5 cm to search for the anterior and posterior fontanelle areas. The stereotaxic caliper was rotated to move the needle tip of trace syringe to the anterior and posterior fontanelle areas, and the mouse skull was kept horizontal by observing the distance from Bregma and Lambda to the needle tip. After horizontal adjustment, the needle tip was moved to Bregma and then moved 2 mm to the right to reach the position.
4) The position on the surface of the mouse skull was marked and a hole was drilled at this point with a skull drill. During drilling, blood vessels should be avoided and drilling should be continued carefully to avoid damaging the duramater and brain tissue.
5) The trace syringe was vertically introduced into the mouse brain tissue using the stereotaxic apparatus with a vertical needle depth of 3 mm. The syringe was kept in place and maintained for 5 min.
6) The syringe pump was turned on, the Infuse Only mode was selected, and the solution (2 μL NMO-IgG+3 μL human complement+5 μL PBS/drug, mixed and pipetted well in advance, and placed on ice) was injected at a speed of […].
7) After the injection was completed, the syringe was maintained for 10 min. The syringe was slowly pulled upward by rotating the caliper, and maintained for 5 min after moving 1 mm upward, until the syringe was completely pulled out. The skin was sutured and disinfected again with iodophor.
Dosing started 3 days before model establishment and lasted until 7 days after model establishment, for 10 consecutive days.
On Day 8 after model establishment (i.e., the day after the last dose), the experimental mice were euthanized and brain tissue was collected for frozen sections. Then, the immune response area of astrocyte markers in each group of mice was determined and evaluated (see the reference Ye Gong et al., Journal of Neuroinflammation, 17 (1). doi:10.1186/s12974-020-01874-6 for experimental methods).

[3] = test system: bleomycin-induced skin fibrosis; experiment: Bleomycin-induced skin fibrosis in mice: skin histopathology (dermal thickness, capillary density score, inflammatory cell infiltration score); assay type: in vivo, male C57BL/6 mice
Protocol: The skin tissue of the lesioned skin was subjected to dehydration, embedding and sectioning according to the pathology SOP, and the tissue was stained by HE and Masson staining. Histopathological analysis was performed according to the following methods:
Masson-stained sections were panoramically scanned by using Nanozomer S210 and the scanned images were subjected to quantitative analysis using Visiopharm VIS6.0 software. The degree of fibrosis was currently represented by the dermal thickness after Masson staining.
The fields of observation was selected in the dermis layer of the lesioned area (the number of fields selected was determined according to the size of the lesioned area) and scored according to the area occupied by capillaries in the area: • 0: No capillary formed • 1: The proportion of capillaries formed was less than 25%; • 2: The proportion of capillaries formed was 25-50%; • 3: The proportion of capillaries formed was 50-75%; • 4: The proportion of capillaries formed was greater than 75%. 3.8.3 Inflammatory cell infiltration score of dermis layer
The fields of observation was selected in the dermis layer of the lesioned area (the number of fields selected was determined according to the size of the lesioned area) and scored according to the degree of inflammatory cell infiltration: • 0: No inflammatory cell infiltration: • 1: A small amount of focal inflammatory cell infiltration; • 2: Scattered diffuse inflammatory cell infiltration: • 3: A large amount of diffuse inflammatory cell infiltration; • 4: A large amount of agglomerated inflammatory cell infiltration.

[4] = 50 and 100 mg/kg PO QD, 28 days (Test groups 2#, 3#)

With NCc1c[nH]c(=S)n1[C@H]1CCc2c(F)cc(F)cc2C1 [Nepicastat] the “symptoms caused by DSS-induced colitis (body weight loss, diarrhea, hematochezia)” value [1] was “effectively alleviated the symptoms of body weight loss, diarrhea and hematochezia”, the “DSS-induced body weight loss” value ([1]; vs solvent group) was “effectively alleviated DSS-induced body weight loss” and the “disease activity score (DAI)” value ([1]; vs solvent group) was “significantly lower than that in the solvent group”. The “effect on NMO-IgG-induced neuromyelitis optica in mice” value [2] was “certain inhibitory effect”, the “immune parameter CD45” value [2] was “no significant effect” and the “immune parameter IBA1” value [2] was “no significant effect”. For the same compound, the “lesion ratio of AQP4” value ([2]; vs control group) was “significantly reduce the lesion ratio”, the “lesion ratio of GFAP” value ([2]; vs control group) was “significantly reduce the lesion ratio” and the “degree of fibrosis of the lesioned skin” value ([3]; 100 mg/kg PO QD, 28 days (Test group 3#)) was “reduce the degree of fibrosis of the lesioned skin”. For the same compound, the “effect to reduce dermal thickness” value ([3]; 25, 50 and 100 mg/kg PO QD, 28 days) was “dose-dependent, and the higher the dose, the more obvious the result, but there was no significant difference compared with the model group”, the “inflammatory cell infiltration of the lesioned skin” value [3, 4] was “significantly reduce” and the subdermal capillary hyperplasia [3, 4] was “significantly reduce”.

From patent US20250134870A1, “PATHWAY MODULATOR, PHARMACEUTICAL COMPOSITION HAVING SAME, USE THEREOF, AND THERAPEUTIC METHOD USING SAME” (Jiangsu Yahong Meditech Co., Ltd., priority 2021, published 2025)
